For this test, the target named is galectin-3 (Homo sapiens (Human), UniProt P17931). Nature of the test: Fluorescence anisotropy assay, inhibition of galectin / fluorescein tagged saccharide probe interaction. It is filed as binding. Here is the method:
Evaluation of Kd Values The affinity of Example 1-71 for galectins were determined by a fluorescence anisotropy assay where the compound was used as an inhibitor of the interaction between galectin and a fluorescein tagged saccharide probe as described Sörme, P., Kahl-Knutsson, B., Huflejt, M., Nilsson, U. J., and Leffler H. (2004) Fluorescence polarization as an analytical tool to evaluate galectin-ligand interactions. Anal. Biochem. 334: 36-47, (Sörme et al., 2004) and Monovalent interactions of Galectin-1 By Salomonsson, Emma; Larumbe, Amaia; Tejler, Johan; Tullberg, Erik; Rydberg, Hanna; Sundin, Anders; Khabut, Areej; Frejd, Torbjorn; Lobsanov, Yuri D.; Rini, James M.; et al, From Biochemistry (2010), 49(44), 9518-9532, (Salomonsson et al., 2010). […] 100 nM albumin was included as a carrier to prevent protein loss at such low concentration of galectin.
Chain of galectin-3 (P17931 whole entry): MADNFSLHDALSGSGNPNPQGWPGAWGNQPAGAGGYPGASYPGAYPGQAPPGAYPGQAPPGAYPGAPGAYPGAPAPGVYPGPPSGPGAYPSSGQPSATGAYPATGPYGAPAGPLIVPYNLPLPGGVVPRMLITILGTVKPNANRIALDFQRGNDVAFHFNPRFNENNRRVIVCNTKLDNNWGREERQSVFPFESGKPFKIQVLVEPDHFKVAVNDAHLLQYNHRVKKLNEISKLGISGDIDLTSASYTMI
With `CO[C@@H]1[C@@H](n2cc(-c3cc(F)c(F)c(F)c3)nn2)[C@@H](O)[C@@H](CO)O[C@@H]1Sc1cc(Cl)cnc1C1=CCNCC1` [Example 28, 5-Chloro-2-(1,2,3,6-tetrahydropyridin-4-yl)pyridin-3-yl 3-deoxy-3-[4-(3,4,5-trifluorophenyl)-1H-1,2,3-triazol-1-yl]-2-O-methyl-1-thio-α-D-galactopyranoside], the Kd amounted to 0.036 µM.
Then `CO[C@@H]1[C@@H](n2cc(-c3ccc(Cl)c(F)c3)nn2)[C@@H](O)[C@@H](CO)O[C@@H]1Sc1cc(Br)cnc1C#N` [Example 51, 5-Bromo-2-cyanopyridin-3-yl 3-[4-(4-chloro-3-fluorophenyl)-1H-1,2,3-triazol-1-yl]-3-deoxy-2-O-methyl-1-thio-α-D-galactopyranoside], with 0.037 µM; and `CO[C@@H]1[C@@H](n2cc(-c3cc(F)c(Cl)c(F)c3)nn2)[C@@H](O)[C@@H](CO)O[C@@H]1Sc1cncc(C#N)c1` [Example 60, 5-Cyanopyridin-3-yl 3-[4-(4-chloro-3,5-difluorophenyl)-1H-1,2,3-triazol-1-yl]-3-deoxy-2-O-methyl-1-thio-α-D-galactopyranoside], with 0.08 µM; and `CO[C@@H]1[C@@H](n2cc(-c3cc(F)c(F)c(F)c3)nn2)[C@@H](O)[C@@H](CO)O[C@@H]1Sc1cncc(C#N)c1` [Example 59, 5-Cyanopyridin-3-yl 3-deoxy-3-[4-(3,4,5-trifluorophenyl)-1H-1,2,3-triazol-1-yl]-2-O-methyl-1-thio-α-D-galactopyranoside], with 0.076 µM.
In turn, `CC(C)O[C@@H]1[C@@H](n2cc(-c3cc(F)c(F)c(F)c3)nn2)[C@@H](O)[C@@H](CO)O[C@@H]1Sc1cncc(Br)c1` [Example 18, 5-Bromopyridin-3-yl 3-deoxy-3-[4-(3,4,5-trifluorophenyl)-1H-1,2,3-triazol-1-yl]-2-O-isopropyl-1-thio-α-D-galactopyranoside] yielded a Kd of 0.15 µM.
With `CO[C@@H]1[C@@H](n2cc(-c3cc(F)c(C)c(F)c3)nn2)[C@@H](O)[C@@H](CO)O[C@@H]1Sc1cc(Cl)ccc1C#N` [Example 14, 5-Chloro-2-cyanophenyl 3-deoxy-3-[4-(3,5-difluoro-4-methylphenyl)-1H-1,2,3-triazol-1-yl]-2-O-methyl-1-thio-α-D-galactopyranoside], the Kd came to 0.05 µM.
In turn, `CO[C@@H]1[C@@H](n2cc(-c3ccc(Cl)c(F)c3)nn2)[C@@H](O)[C@@H](CO)O[C@@H]1Sc1cc(Cl)cnc1C#N` [Example 48, 5-Chloro-2-cyanopyridin-3-yl 3-[4-(4-chloro-3-fluorophenyl)-1H-1,2,3-triazol-1-yl]-3-deoxy-2-O-methyl-1-thio-α-D-galactopyranoside] displayed a Kd of 0.031 µM.
Molecule `CO[C@@H]1[C@@H](n2cc(-c3cc(F)c(F)c(F)c3)nn2)[C@@H](O)[C@@H](CO)O[C@@H]1Sc1cc(Br)ccc1C(=O)N1CCC1` [Example 64, 2-(N-azetidinyl-carbonyl)-5-bromophenyl 3-deoxy-3-[4-(3,4,5-trifluorophenyl)-1H-1,2,3-triazol-1-yl]-2-O-methyl-1-thio-α-D-galactopyranoside] displayed a Kd of 0.016 µM.
As for `CO[C@@H]1[C@@H](n2cc(-c3ccc(Cl)c(F)n3)nn2)[C@@H](O)[C@@H](CO)O[C@@H]1Sc1cc(Cl)cnc1C#N` [Example 55, 5-Chloro-2-cyanopyridin-3-yl 3-[4-(5-chloro-6-fluoropyridin-2-yl)-1H-1,2,3-triazol-1-yl]-3-deoxy-2-O-methyl-1-thio-α-D-galactopyranoside], the Kd was 0.35 µM.
The molecule `CO[C@@H]1[C@@H](n2cc(-c3cc(F)c(F)c(F)c3)nn2)[C@@H](O)[C@@H](CO)O[C@@H]1Sc1cc(Cl)cnc1-c1ncco1` [Example 30, 5-Chloro-2-(oxazol-2-yl)pyridin-3-yl 3-deoxy-3-[4-(3,4,5-trifluorophenyl)-1H-1,2,3-triazol-1-yl]-2-O-methyl-1-thio-α-D-galactopyranoside] displayed a Kd of 0.056 µM.
`CO[C@@H]1[C@@H](n2cc(-c3cc(F)c(Cl)c(F)c3)nn2)[C@@H](O)[C@@H](CO)O[C@@H]1Sc1cnc(C(F)(F)F)c(C)c1` [Example 39, 6-Trifluoromethyl-5-methylpyridin-3-yl 3-[4-(4-chloro-3,5-difluorophenyl)-1H-1,2,3-triazol-1-yl]-3-deoxy-2-O-methyl-1-thio-α-D-galactopyranoside] had a Kd of 0.28 µM.
`CO[C@@H]1[C@@H](n2cc(-c3cc(F)c(F)c(F)c3)nn2)[C@@H](O)[C@@H](CO)O[C@@H]1Sc1cc(Cl)cnc1-c1cccnc1` [Example 26, 5-Chloro-2-(pyridin-3-yl)pyridin-3-yl 3-deoxy-3-[4-(3,4,5-trifluorophenyl)-1H-1,2,3-triazol-1-yl]-2-O-methyl-1-thio-α-D-galactopyranoside] came in with a Kd of 0.055 µM.
`CO[C@@H]1[C@@H](n2cc(-c3cc(F)c(F)c(F)c3)nn2)[C@@H](O)[C@@H](CO)O[C@@H]1Sc1cc(Cl)cnc1C1=CCNC1` [Example 29, 5-Chloro-2-(3-pyrrolin-3-yl)pyridin-3-yl 3-deoxy-3-[4-(3,4,5-trifluorophenyl)-1H-1,2,3-triazol-1-yl]-2-O-methyl-1-thio-α-D-galactopyranoside] registered a Kd of 0.068 µM.
As to `CO[C@@H]1[C@@H](n2cc(-c3cc(F)c(Cl)c(F)c3)nn2)[C@@H](O)[C@@H](CO)O[C@@H]1Sc1cc(C)cnc1C#N` [Example 49, 2-Cyano-5-methylpyridin-3-yl 3-[4-(4-chloro-3,5-difluorophenyl)-1H-1,2,3-triazol-1-yl]-3-deoxy-2-O-methyl-1-thio-α-D-galactopyranoside], the Kd is 0.05 µM.
Then `CO[C@@H]1[C@@H](n2cc(-c3cc(F)c(Cl)c(F)c3)nn2)[C@@H](O)[C@@H](CO)O[C@@H]1Sc1cc(Cl)cnc1C#N` [Example 47, 5-Chloro-2-cyanopyridin-3-yl 3-[4-(4-chloro-3,5-difluorophenyl)-1H-1,2,3-triazol-1-yl]-3-deoxy-2-O-methyl-1-thio-α-D-galactopyranoside], with 0.034 µM; and `CO[C@@H]1[C@@H](n2cc(-c3ccc(C)c(F)c3)nn2)[C@@H](O)[C@@H](CO)O[C@@H]1Sc1cc(Cl)ccc1C(=O)N1CCC1` [Example 41, 2-(N-azetidinyl-carbonyl)-5-chlorophenyl 3-deoxy-3-[4-(3-fluoro-4-methylphenyl)-1H-1,2,3-triazol-1-yl]-2-O-methyl-1-thio-α-D-galactopyranoside], with 0.007 µM; and `OCCO[C@@H]1[C@@H](n2cc(-c3cc(F)c(Cl)c(F)c3)nn2)[C@@H](O)[C@@H](CO)O[C@@H]1Sc1ccc(Cl)c(Cl)c1` [Example 21, 3,4-Dichlorophenyl 3-[4-(4-chloro-3,5-difluorophenyl)-1H-1,2,3-triazol-1-yl]-3-deoxy-2-O-(2-hydroxyethyl)-1-thio-α-D-galactopyranoside], with 0.058 µM.
To `CO[C@@H]1[C@@H](n2cc(-c3cc(F)c(Cl)c(F)c3)nn2)[C@@H](O)[C@@H](CO)O[C@@H]1Sc1cncc(Br)c1` [Example 34, 5-Bromopyridin-3-yl 3-[4-(4-chloro-3,5-difluorophenyl)-1H-1,2,3-triazol-1-yl]-3-deoxy-2-O-methyl-1-thio-α-D-galactopyranoside] belongs 0.021 µM.
The molecule `C#Cc1cnc(C#N)c(S[C@H]2O[C@H](CO)[C@H](O)[C@H](n3cc(-c4cc(F)c(Cl)c(F)c4)nn3)[C@H]2OC)c1` [Example 56, 2-Cyano-5-ethynylpyridin-3-yl 3-[4-(4-chloro-3,5-difluorophenyl)-1H-1,2,3-triazol-1-yl]-3-deoxy-2-O-methyl-1-thio-α-D-galactopyranoside] yielded a Kd of 0.028 µM.
`CO[C@@H]1[C@@H](n2cc(-c3cc(F)c(C)c(F)c3)nn2)[C@@H](O)[C@@H](CO)O[C@@H]1Sc1cc(Cl)cnc1C#N` [Example 12, 5-Chloro-2-cyanopyridin-3-yl 3-deoxy-3-[4-(3,5-difluoro-4-methylphenyl)-1H-1,2,3-triazol-1-yl]-2-O-methyl-1-thio-α-D-galactopyranoside] had a Kd of 0.012 µM.
With `CO[C@@H]1[C@@H](n2cc(-c3cc(F)c(Cl)c(F)c3)nn2)[C@@H](O)[C@@H](CO)O[C@@H]1Sc1cnc(C(F)(F)F)c(C#N)c1` [Example 58, 5-Cyano-6-trifluoromethylpyridin-3-yl 3-[4-(4-chloro-3,5-difluorophenyl)-1H-1,2,3-triazol-1-yl]-3-deoxy-2-O-methyl-1-thio-α-D-galactopyranoside], the Kd amounted to 0.19 µM.
With `CO[C@@H]1[C@@H](n2cc(-c3cc(F)c(F)c(F)c3)nn2)[C@@H](O)[C@@H](CO)O[C@@H]1Sc1cncc(Cl)c1` [Example 42, 5-Chloropyridin-3-yl 3-deoxy-3-[4-(3,4,5-trifluorophenyl)-1H-1,2,3-triazol-1-yl]-2-O-methyl-1-thio-α-D-galactopyranoside], binding was characterised by a dissociation constant (Kd) of 0.029 µM.
Consider `OC[C@H]1O[C@H](Sc2cncc(Br)c2)[C@H](OCC(O)C(F)(F)F)[C@@H](n2cc(-c3cc(F)c(F)c(F)c3)nn2)[C@H]1O` (stereo partly drawn) [Example 5, 5-Bromopyridin-3-yl 3-deoxy-3-[4-(3,4,5-trifluorophenyl)-1H-1,2,3-triazol-1-yl]-2-O-(1,1,1-trifluoro-2-hydroxyprop-3-yl)-1-thio-α-D-galactopyranoside], for which the Kd came out at 0.082 µM.
Molecule `CO[C@@H]1[C@@H](n2cc(-c3ccc(Cl)c(F)c3)nn2)[C@@H](O)[C@@H](CO)O[C@@H]1Sc1cncc(Br)c1` [Example 38, 5-Bromopyridin-3-yl 3-[4-(4-chloro-3-fluorophenyl)-1H-1,2,3-triazol-1-yl]-3-deoxy-2-O-methyl-1-thio-α-D-galactopyranoside] returned a Kd of 0.062 µM.

The values are drawn from patent publication US11447517B2, “Galactoside inhibitor of galectins” (GALECTO BIOTECH AB, priority 2018, dated 2022).
